Values of other authors, collected in US11129815B2, “Solid dispersions comprising tacrolimus” (Veloxis Pharmaceuticals A/S, priority 2003, dated 2021).

Legend:
[1] = not given; remark: listed apart in the source

For `C=CC[C@@H]1/C=C(\C)C[C@H](C)C[C@H](OC)[C@H]2O[C@@](O)(C(=O)C(=O)N3CCCC[C@H]3C(=O)O[C@H](/C(C)=C/[C@@H]3CC[C@@H](O)[C@H](OC)C3)[C@H](C)[C@@H](O)CC1=O)[C@H](C)C[C@@H]2OC` [Tacrolimus], the bioavailability (after oral administration) is listed as at most 20%, the “mean time-to-peak concentration (tmax)” value (oral administration, healthy subjects or kidney or liver transplanted patients) is listed as 1 to 2 h and the solubility in chloroform ([1]; chloroform) is listed as “very soluble”. The solubility in ethanol ([1]; ethanol) was “freely soluble”, the solubility in methanol ([1]; methanol) was “very soluble” and the solubility in water ([1]; water) was “practically insoluble”.
